Experiments:
[1] = test system: NCI-H358, MKN45, NCI-H23, RT 4, MV-4-11, RMG-I; test: Anti-proliferation assay, summary over the cell lines of table 3; type: cell-based
Protocol: Cell lines were obtained from ATCC or Health Science Research Resources Bank.
384 well culture plate (781086, Greiner Bio-One International) was used for cell survival rate measurement assay. Each cell lines were collected by ordinary method, then suspended in indicated medium containing 10% fetal bovine serum in table 3. The number of cells seeded per well was set to 500 cells/20 μL. After incubation at 37° C. for 24 hours under 5% CO2, Compound 1 and additional compound having an antitumor effect or a vehicle (DMSO) was added to each well by using D300e Digital Dispenser (Tecan). The concentration of Compound 1 was set to 10 concentrations. The concentration of each anti-cancer reagents set to 8 concentrations including 0 nM. After adding the medicine to the cells, the cells were further incubated at 37° C. for 3 days under 5% CO2. Cell survival rates were calculated by adding 20 μL of CellTiter-Glo(registered trademark) 2. 0 (Promega) solution to each well, incubating the cells at room temperature for 10 minutes, and then measuring the chemiluminescence intensity of each well using a plate reader (ARVO).
A combination index (CI) value at each combined concentration of the medicines was determined.

[2] = test system: human colorectal cancer cell line SW837; test: Antitumor effect on SW837 tumor subcutaneously implanted to SCID-Beige mouse; type: in vivo; conditions: Compound 1 alone, 25 mg/kg/day orally once a day for 28 days; day of assessment
Protocol: The day at which the grouping was carried out was defined as Day 0.

491 cell lines = test: In vitro cell line screening, both panels overall; type: cell-based, human; conditions: Total panel, sensitive = maximum inhibition greater than 50% relative to DMSO, max 3 μM Compound 1, 1 μM Compound 9, 120-hour incubation
Protocol: (§1) Cells from human cancer cells lines (from commercial sources such as ATCC or ECCAC) were grown as 3D cultures by seeding cells into round-bottom ultra-low attachment 96-well tissue culture plates (Corning) followed by centrifugation. Cells were allowed to recover for 16-24 hours prior to compound treatment. Compounds or dimethyl sulfoxide (DMSO) were added at various combinations of compound concentrations in a final DMSO concentration of up to 0.5% (v/v). Following a total of 120-hour incubation, CellTiter-Glo 3D Reagent(registered trademark) (Promega) was added. Plates were incubated for 10 minutes with gentle shaking at room temperature to lyse the cells, then incubated for further 40 minutes at room temperature to stabilize luminescence signal. After mixing, the mixture was transferred to a fresh plate and luminescence was determined on EnVision plate reader (Perkin Elmer).
as §1, with “as 2D monolayers” for “as 3D cultures”, “seeding onto flat-bottom” for “seeding cells into round-bottom ultra-low attachment”, “plates (Corning).” for “plates (Corning) followed by centrifugation.”, “CellTiter-Glo reagent(registered” for “CellTiter-Glo 3D Reagent(registered”, “further 10” for “further 40”, “fresh plate,” for “fresh plate”
(§2) For both 3D and 2D assays, the combination was tested as matrix of various concentrations of Compound 1 and Compound 9. The maximum concentrations of Compound 1 and Compound 9 used were 3 μM and 1 μM, respectively. Signals were normalized to that of the average of the DMSO control wells. […] For each cell line, the maximum % inhibition values were obtained for Compound 1 alone, Compound 9 alone and the combination of both compounds. The degree of drug interaction (i.e. synergy, additivity or antagonism) was quantified for each cell line by the Bliss independence model using the Synergyfinder R package (Ref: He L. et al. (2018) Methods for High-throughput Drug Combination Screening and Synergy Scoring. In: von Stechow L. (eds) Cancer Systems Biology. Methods in Molecular Biology, vol 1711. Humana Press, New York, N.Y.). For each cell line, a single score metric, the sum of synergy and antagonism across screened drug concentrations (SUM_SYN_ANT) (Ref: Di Veroli G. Y. et al (2016) Bioinformatics 32(18):2866-2868), was calculated. Synergy was defined as a score of 21 or above.

[3] = test system: human pancreatic cancer cell line MIA PaCa-2 (KRAS mutation); test: Antitumor effect on MIA PaCa-2 tumor subcutaneously implanted to CB17 SCID mouse; type: in vivo; conditions: for T/C: once a day, Day 18
Protocol: MIA PaCa-2 cell line carries KRAS mutation.
A human pancreatic cancer line, MIA PaCa-2 (available from American Type Culture Collection), suspended in a mixture of PBS and Matrigel was subcutaneously implanted to male CB17 SCID mice at 7-10 weeks of age (Charles River UK) at 5×10^6 cells/100 μl/mouse. Tumors were measured with a pair of digital calipers, and tumor volumes (TV) were calculated by applying the formula for ellipsoid. Mice with TV of 146 to 360 mm^3 were assigned to study groups such that average TV was equal among groups.
Oral administration of Compound 1 or its vehicle, and Compound 9 or its vehicle was started on Day 1. Compound 1 was dissolved in an acidified solution of 0.5% (w/v) hydroxypropyl methylcellulose (Sigma) and administered via oral gavage at 6 or 12 mg/kg/day. Compound 9 was suspended in 20% (v/v) PEG200 (Sigma) and 0.5% (w/v) methylcellulose (Sigma) and administered via oral gavage at 50 mg/kg/day. All treatments were given once a day for 21 consecutive days, except for the combination group receiving 12 mg/kg of Compound 1 and 50 mg/kg of Compound 9, in which the animals were treated for 5 days per week for 3 weeks.
Antitumor effects were evaluated by comparing the median relative tumor volumes (RTV) between control- and treated groups. RTV was calculated by dividing TV on any test day by TV on Day 1, expressed as a percentage. T/C (%), as a measure of anti-tumor activity, was calculated by dividing median RTV values of each compound-administered group by median RTV of the control group receiving both vehicles.

[4] = test system: 394 cell lines that do not depend on KRAS; test: In vitro cell line screening, 2D monolayers (CellTiter-Glo), KRAS-independent panel; type: cell-based, human; conditions: Non-KRAS panel, sensitive = maximum inhibition greater than 50% relative to DMSO, max 3 μM Compound 1, 1 μM Compound 9, 120-hour incubation
Protocol: as §1, with “as 2D monolayers” for “as 3D cultures”, “seeding onto flat-bottom” for “seeding cells into round-bottom ultra-low attachment”, “plates (Corning).” for “plates (Corning) followed by centrifugation.”, “CellTiter-Glo reagent(registered” for “CellTiter-Glo 3D Reagent(registered”, “further 10” for “further 40”, “fresh plate,” for “fresh plate”
as §2

Structure (SMILES): Cn1nc2ccc(-c3c[nH]c4nc(N5[C@H]6CC[C@@H]5[C@H](N)C6)n(C)c(=O)c34)c(Cl)c2c1Cl [Compound 1, 2-((1R,2R,4S)-2-amino-7-azabicyclo[2.2.1]heptan-7-yl)-5-(3,4-dichloro-2-methyl-2H-indazol-5-yl)-3-methyl-3,7-dihydro-4H-pyrrolo[2,3-d]pyrimidin-4-one]
- anti-proliferation activity in combination ([1]; with ALK, Her family (EGFR and HER2), BCR-ABL, FLT3, multi-kinase (PDGFR and VEGFR), c-kit inhibitor): synergistically enhanced
- anti-proliferation activity in combination ([1]; with BCL2 inhibitor): synergistically enhanced
- anti-proliferation activity in combination ([1]; with CDK4/6 inhibitor): synergistically enhanced
- anti-proliferation activity in combination ([1]; with HDAC inhibitor): synergistically enhanced
- anti-proliferation activity in combination ([1]; with PI3K inhibitor or AKT inhibitor): synergistically enhanced
- anti-proliferation activity in combination ([1]; with RAF inhibitor, MEK inhibitor or ERK inhibitor): synergistically enhanced
- anti-proliferation activity in combination ([1]; with anthracycline antibiotics): synergistically enhanced
- anti-proliferation activity in combination ([1]; with anti-metabolite): synergistically enhanced
- anti-proliferation activity in combination ([1]; with microtubule inhibitor): synergistically enhanced
- anti-proliferation activity in combination ([1]; with platinum antitumor agent): synergistically enhanced
- anti-proliferation activity in combination ([1]; with topoisomerase inhibitor): synergistically enhanced
- T/C (%) [2]: 65.0%
- Number of cell lines sensitive (491 cell lines): 175
- Number of cell lines sensitive (% of total) (491 cell lines): (35.6) %
- tumor response ([3]; Compound 1 alone 6 mg/kg/day): transient stasis
- T/C ([3]; Compound 1 alone 6 mg/kg/day oral): 58%
- partial regression (tumor shrinkage of 50% or above), mice ([3]; Compound 1 alone 12 mg/kg/day): 2 out of 8
- tumor response ([3]; Compound 1 alone 12 mg/kg/day): tumor stasis
- T/C ([3]; Compound 1 alone 12 mg/kg/day oral): 33%
- Number of cell lines sensitive [4]: 137
- Number of cell lines sensitive (% of total) [4]: (34.8) %
